In assay [1] the test system is CCI-induced pain in rats. To be noted: literature; cited from earlier work.
Assay [2] deals with Streptozocin (STZ)-induced diabetes neuropathy in the rat. As to the kind of experiment: STZ-induced static allodynia (von Frey hairs, PWT). The following applies: compound 25 mg/kg PO; gabapentin 100 mg/kg PO (positive control). The format is in vivo. The procedure:
(§1) Male Sprague Dawley rats weighing 150-400 g obtained from Charles River (Manston, Kent, UK.) were housed in groups of 3. All animals were kept under a 12 h light/dark cycle (lights on at 07 h 00 min) with food and water ad libitum. All experiments were carried out by an observer blind to the treatments and in accordance with the Home Office Animals (Scientific Procedures) Act 1986.
(§2) Diabetes was induced by a single intraperitoneal injection of streptozotocin (50 mg/kg) freshly dissolved in 0.9% sterile saline. Streptozotocin injection induces a reproducible mechanical allodynia within 3 weeks, lasting for at least 7 weeks (Chen and Pan, (Chen S R and Pan H L. Hypersensitivity of Spinothalamic Tract Neurons Associated With Diabetic Neuropathic Pain in Rats. J Neurophysiol 87: 2726-2733, 2002).
Animals were habituated to wire bottom test cages prior to the assessment of allodynia. Static allodynia was evaluated by application of von Frey hairs (Stoelting, Wood Dale, Ill., USA.) in ascending order of force (0.6, 1, 1.4, 2, 4, 6, 8, 10, 15 and 26 grams) to the plantar surface of hind paws. Each von Frey hair was applied to the paw for a maximum of 6 sec, or until a withdrawal response occurred. Once a withdrawal response to a von Frey hair was established, the paw was re-tested, starting with the filament below the one that produced a withdrawal, and subsequently with the remaining filaments in descending force sequence until no withdrawal occurred. The highest force of 26 g lifted the paw as well as eliciting a response, thus represented the cut off point. Each animal had both hind paws tested in this manner. The lowest amount of force required to elicit a response was recorded as paw withdrawal threshold (PWT) in grams. Static allodynia was defined as present if animals responded to a stimulus of, or less than, 4 g, which is innocuous in naive rats (Field M J, Bramwell S, Hughes J, Singh L. Detection of static and dynamic components of mechanical allodynia in rat models of neuropathic pain: are they signalled by distinct primary sensory neurones? Pain, 1999; 83:303-11).
(§3) All the experiments were conducted blind. Static allodynia was expressed as median [LQ; UQ] and analysed by Mann Whitney U test. Dynamic allodynia and thermal hyperalgesia were expressed as arithmetic mean±SEM and analysed by ANOVA.

Assay [3] shares this test system. As to the kind of experiment: STZ-induced dynamic allodynia (cotton bud, PWL). The class given is in vivo. The following applies: compound 25 mg/kg PO; gabapentin 100 mg/kg PO (positive control). The procedure:
as §1, §2
Dynamic allodynia was assessed by lightly stroking the plantar surface of the hind paw with a cotton bud. To avoid recording general motor activity, care was taken to perform this procedure in fully habituated rats that were not active. At least two measurements were taken at each time point, the mean of which represented the paw withdrawal latency (PWL). […] A pain withdrawal response was often accompanied with repeated flinching or licking of the paw. Dynamic allodynia was considered to be present if animals responded to the cotton stimulus within 8 sec of commencing stroking (Field et al, 1999).
as §3

Assay [4] deals with Chronic Constriction Injury (CCI) rat model of neuropathic pain. The following applies: literature; cited from earlier work.
For assay [5] the test system is unchanged. To be noted: literature; cited from earlier work. This is another data set of the same source.
For assay [6], the system named is Streptozocin (STZ)-induced diabetes neuropathy in the rat. The following applies: literature; cited from earlier work.
Assay [7] shares this test system. To be noted: literature; cited from earlier work. The source holds these as a separate data set.
Assay [8] relates to Carrageenan-induced thermal hyperalgesia (CITH) in the rat. As to the kind of experiment: Carrageenan-induced thermal hyperalgesia (CITH), rat plantar test. The class given is in vivo. The following applies: 3 mg/kg SC. Here is the method: as §1
Thermal hyperalgesia was assessed using the rat plantar test (Ugo Basile, Comerio, Italy), according to a method modified by Hargreaves et al. (1988). Briefly, rats were habituated to the apparatus that consisted of three individual Perspex boxes on a glass table. A mobile radiant heat source was located under the table and focused onto the desired paw. Paw withdrawal latencies (PWLs) were recorded three times for both hind paws of each animal, the mean of which represented baseline for left and right hind paws. The apparatus was calibrated to give a PWL of approximately 10 s in naïve rats. To prevent tissue damage of the plantar zone, a 22.5 sec cut-off was observed. Lambda carrageenan was injected intraplantarly (100 μl, 20 mg/ml) the right hind paw and baseline recordings of PWT were taken 2 hr post administration.
as §3

Assay [9] has as its target T1, CRTH2 receptor (Homo sapiens, UniProt Q9Y5Y4).
T1 construct: Flag peptide (behind a 'prolac' signal peptide) (N); expressed in transfected cells
T1 sequence (Q9Y5Y4 1-395): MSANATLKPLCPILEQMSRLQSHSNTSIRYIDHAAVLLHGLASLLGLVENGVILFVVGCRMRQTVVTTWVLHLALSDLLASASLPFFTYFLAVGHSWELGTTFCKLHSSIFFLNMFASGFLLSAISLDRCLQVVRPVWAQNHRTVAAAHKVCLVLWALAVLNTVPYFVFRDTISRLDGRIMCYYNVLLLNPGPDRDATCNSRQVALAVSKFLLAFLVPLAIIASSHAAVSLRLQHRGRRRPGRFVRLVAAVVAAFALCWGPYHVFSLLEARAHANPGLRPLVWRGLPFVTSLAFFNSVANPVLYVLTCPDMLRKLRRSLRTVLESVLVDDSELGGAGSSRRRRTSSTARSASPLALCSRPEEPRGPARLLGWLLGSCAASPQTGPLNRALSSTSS
Put plainly: calcium mobilization in cells that express CRTH2 receptor. The class given is cell-based. To be noted: absence of test compound, Indo-1 fluorescence; read-out: EC50 of increased [Ca2+]i. The procedure: The ratio of fluorescence produced by the calcium-bound dye to that produce by the unbound dye is used to estimate the intracellular calcium concentration. In an example method cells that express CRTH2 receptor are collected, and resuspended in fresh media at ˜2×10^5/ml the day before performing the calcium flux assay. Cells are incubated at 37° C. for not longer than 20-30 minutes, and then spun down and resuspended in 50 ml fresh PTI buffer (Hank's Buffer, pH 7.2-7.4; 10 mM Hepes; 1.6 mM CaCl2) containing Indo-1 AM, pre-warmed to 37° C., at a concentration of 10 million per ml. Cells are excited, and fluorescence is measured using a fluorimeter (Photon Technology Corporation, International). After the readout has stabilized, the time axis is reset, and PGD2 is added at a specific time point (e.g., 20 seconds). After response, the following reagents are added to the cuvette, to release and chelate total calcium, in the following order: 20 μl of 18% Triton X-100, 20 μl of 3M Tris, pH 8.5, and 20 μl of 0.5M EGTA, pH 8.5. The experiment is repeated in the presence and the absence of a test compound. […] Therefore, in the presence of an antagonist test compound, the EC50 would be expected to […].
(A change in cytosolic calcium serves as a functional read-out for many receptors and channels.)

As for `CC(C)Cc1ccc(C(C)C(=O)O)cc1` (centres unmarked) [Ibuprofen], the “reversal of CCI-induced pain in rats (Schäfers 2004)” value in assay [1] is on record as “no significant effect”.

`NCC1(CC(=O)O)CCCCC1` [Gabapentin]: the “effect on maintenance of STZ-induced static allodynia” value in [2] is on record as “complete reversal”. Also, the “effect on maintenance of STZ-induced dynamic allodynia” value in assay [3] is recorded as “complete reversal”. Moreover, the “static allodynia in CCI rat model (Field et al 1999)” value (from here on “static allodynia in CCI rat model”) in assay [4] is “reverse both static and dynamic allodynia”. The “dynamic allodynia in CCI rat model (Field et al 1999)” value (“dynamic allodynia in CCI rat model” below) in [5] was “reverse both static and dynamic allodynia”. Besides, in [6], the “static allodynia in STZ rat model (Field et al 1999)” value was “reverse both static and dynamic allodynia”. The “dynamic allodynia in STZ rat model (Field et al 1999)” value in assay [7] is “reverse both static and dynamic allodynia”.

As for `CN1CC[C@]23c4c5ccc(O)c4O[C@H]2[C@@H](O)C=C[C@H]3[C@H]1C5` [Morphine, reference compound], in assay [8], the “analgesic effect of positive control” value is given as “produced the expected analgesic effect”. In [8] (30 min post dose), the “change of PWLs in both hindpaws” value is “increased the PWLs in both hindpaws over the baseline value of naïve rats”. In addition, the “static allodynia in CCI rat model” value in assay [4] is “reverses static”. Further, in [5], the “dynamic allodynia in CCI rat model” value is recorded as “not dynamic allodynia”.

In the case of `Cc1ccc(-c2cc(C(F)(F)F)nn2-c2ccc(S(N)(=O)=O)cc2)cc1` [Celebrex], in assay [1], the “reversal of CCI-induced pain in rats (Schäfers 2004)” value is recorded as “no significant effect”.

By EC50 is commonly meant the concentration giving half of the maximal effect. `CCCCC[C@H](O)/C=C/[C@H]1C(=O)C[C@H](O)[C@@H]1C/C=C\CCCC(=O)O` [PGD2, Prostaglandin D2]: the EC50 in assay [9] came out at 15 nM.

As to `CC(C)C[C@H](CN)CC(=O)O` [Pregabalin], the “static allodynia in CCI rat model” value in assay [4] is “reverse both static and dynamic allodynia”. Also, the “dynamic allodynia in CCI rat model” value in assay [5] was “reverse both static and dynamic allodynia”. Moreover, in assay [6], the “static allodynia in STZ rat model (Field et al 1999)” value was “reverse both static and dynamic allodynia”. Further, in assay [7], the “dynamic allodynia in STZ rat model (Field et al 1999)” value is “reverse both static and dynamic allodynia”.

Values taken from US20090170897A1, “Method of Treating Neuropathic Pain” (Pfizer, Inc., priority 2004, published 2009).
